Where a name gives a salt, the structure may show the parent alone.
Target: T1, 5-Lipoxygenase (Homo sapiens, UniProt P09917)
T1 construct: from tissue; host or cells: human heparinized whole blood
T1 sequence (P09917 1-674): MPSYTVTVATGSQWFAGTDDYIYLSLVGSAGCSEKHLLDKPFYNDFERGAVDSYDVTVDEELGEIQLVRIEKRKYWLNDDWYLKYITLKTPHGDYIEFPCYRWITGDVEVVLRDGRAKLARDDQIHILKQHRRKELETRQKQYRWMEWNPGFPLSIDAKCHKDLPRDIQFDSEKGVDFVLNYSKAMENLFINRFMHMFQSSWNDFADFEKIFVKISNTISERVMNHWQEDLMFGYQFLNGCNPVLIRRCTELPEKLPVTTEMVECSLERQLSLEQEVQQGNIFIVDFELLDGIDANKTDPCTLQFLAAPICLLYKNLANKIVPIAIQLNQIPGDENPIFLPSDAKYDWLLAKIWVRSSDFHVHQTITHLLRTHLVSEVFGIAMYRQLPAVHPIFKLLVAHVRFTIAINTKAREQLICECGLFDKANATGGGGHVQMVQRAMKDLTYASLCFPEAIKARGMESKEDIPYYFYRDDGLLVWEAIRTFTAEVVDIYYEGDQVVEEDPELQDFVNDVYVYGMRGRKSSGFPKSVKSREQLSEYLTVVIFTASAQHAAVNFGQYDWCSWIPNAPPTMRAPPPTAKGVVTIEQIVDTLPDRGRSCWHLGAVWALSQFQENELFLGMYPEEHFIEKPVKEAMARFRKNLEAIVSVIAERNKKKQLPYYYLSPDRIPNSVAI
Test: Inhibition of calcium ionophore-induced LTB4 biosynthesis in human whole blood (5-lipoxygenase)
Assay type: cell-based
Conditions: for IC50: calcium ionophore A23187 8.3 μM, 15 min preincubation, 37° C., read-out: IC50 against 5-lipoxygenase from stimulated LTB4 formation in human whole blood; for inhibition at 0.1 µM: @ 0.10 μM
Experimental: Inhibition of leukotriene biosynthesis was evaluated in an assay, involving calcium ionophore-induced LTB4 biosynthesis expressed human whole blood. Human heparinized whole blood was preincubated with test compounds or vehicle for 15 min at 37° C. followed by calcium ionophore A23187 challenge (final concentration of 8.3 μM) and the reaction terminated after 30 min by adding two volumes of methanol containing prostaglandin B2 as an internal recovery standard. The methanol extract was analyzed for LTB4 using a commercially available radioimmunoassay.

[1] = A23187, read-out: Inhibition of stimulated LTB4 formation in human whole blood

| Compound | IC50 | also measured |
| --- | --- | --- |
| COC1(c2cccc(Sc3ccc(N(C)C(=O)N(C)C)cc3)c2)CCOCC1 [Example 8, 4-{3-[4-((N',N'-dimethylaminocarbonyl)-N-methylamino)phenylthio]phenyl}-4-methoxytetrahydropyran] | – | inhibition at 0.025 µM (@ 0.025 μM, A23187, read-out: Inhibition of stimulated LTB4 formation in human whole blood): 45% |
| COC1(c2cccc([S+]([O-])c3ccc(N(C)C(=O)N(C)C)cc3)c2)CCOCC1 (stereo not shown) [Example 9, 4-{3-[4-((N',N'-dimethylaminocarbonyl)-N-methylamino)phenylsulfinyl]phenyl}-4-methoxytetrahydropyran] | – | inhibition at 0.1 µM [1]: 25% |
| COC1(c2cc(F)cc(OCc3ccc(CN4CCNC4=O)cc3)c2)CCOCC1 [Example 17, 4-{3-[4-(imidazolidin-2-on-1-ylmethyl)benzyloxy]-5-fluorophenyl}-4-methoxytetrahydropyran] | – | inhibition at 200 µM (@ 200 μM, A23187, read-out: Inhibition of stimulated LTB4 formation in human whole blood): 13% |
| CNC(=O)N(C)c1ccc(Sc2cccc(C3(OC)CCOCC3)c2)cc1 [Example 28, 4-{3-[4-((N"-methylaminocarbonyl)-N-methylamino)phenylthio]phenyl}-4-methoxytetrahydropyran] | – | inhibition at 0.78 µM (@ 0.78 μM, A23187, read-out: Inhibition of stimulated LTB4 formation in human whole blood): 100% |
| COC1(c2cccc(Sc3ccc(N(C)C(=O)N4CCOCC4)cc3)c2)CCOCC1 [Example 29, 4-{3-[4-((4-morpholinocarbonyl)-N-methylamino)phenylthio]phenyl}-4-methoxytetrahydropyran] | – | inhibition at 0.1 µM [1]: 94% |
| COC1(c2cccc(Sc3ccc(N(C)C(=O)N4CCN(C)CC4)cc3)c2)CCOCC1 [Example 31, 4-{3-[4-(((4-methylpiperazinyl)carbonyl)-N-methylamino)phenylthio]phenyl}-4-methoxytetrahydropyran] | 70 nM | – |
| COC1(c2cccc(Sc3ccc(N(C)C(=O)N4CCN(C)CC4)cc3)c2)CCOCC1 [Example 33, 4-{3-[4-(((4-methylpiperazinyl)carbonyl)-N-methylamino)phenylthio]phenyl}-4-methoxytetrahydropyran hydrochloride salt] | 80 nM | – |
| C=CCN(C)C(=O)N(C)c1ccc(Sc2cccc(C3(OC)CCOCC3)c2)cc1 [Example 35, 4-{3-[4-(((N'-allyl-N'-methylamino)carbonyl)-N-methylamino)phenyl-thio]phenyl}-4-methoxytetrahydropyran] | 30 nM | – |

Now from value to compound, other results behind:

| IC50 | Compound | also measured |
| --- | --- | --- |
| 17 nM | COC1(c2cc(F)cc(OCc3ccc(N(C)C(=O)N(C)C)cc3)c2)CCOCC1 [Example 1, 4-{3-[4-((N',N'-dimethylaminocarbonyl)-N-methylamino)benzyloxy]-5-fluorophenyl}-4-methoxytetrahydropyran] | – |
| 1800 nM | COC1(c2cc(F)cc(OCc3ccc(CNC(=O)N(C)C)cc3)c2)CCOCC1 [Example 11, 4-{3-[4-((N',N'-dimethylaminocarbonyl)aminomethyl)benzyloxy]-5-fluorophenyl}-4-methoxytetrahydropyran] | – |

— US5432194A, “(4-alkoxypyran-4-yl) substituted arylalkylaryl-, aryalkenylaryl-, and aryalkynylarylurea inhibitors of 5-lipoxygenase” (Abbott Laboratories, priority 1994, dated 1995)
